“And” between values parts separate entries of the source, which are not always exact repeats. Equal values may be shown once. Inconclusive results and toxic doses are left out.
Test system: L1210 leukemia ip in BDF1 mice, survival T/C
Test: NCI In Vivo Anticancer Drug Screen. Data for tumor model L1210 Leukemia (intraperitoneal) in B6D2F1 (BDF1) mice
Conditions: endpoint: mean survival time, higher = longer survival
In short: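 Antitumor effect is assessed in tumor-bearing animals. Survival in the compound arm is compared with a vehicle-dosed control arm and expressed as their quotient.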

[1] = dose: 50.0 mg/kg/injection, schedule: Q01DX009 (ip), vehicle: saline with Tween-80
[2] = dose: 100.0 mg/kg/injection, schedule: Q01DX009 (ip), vehicle: saline with Tween-80
[3] = dose: 100.0 mg/kg/injection, schedule: Q04DX003 (ip), vehicle: saline with Tween-80
[4] = dose: 200.0 mg/kg/injection, schedule: Q04DX003 (ip), vehicle: saline with Tween-80
[5] = dose: 400.0 mg/kg/injection, schedule: Q04DX003 (ip), vehicle: saline with Tween-80
[6] = dose: 100.0 mg/kg/injection, schedule: Q04DX003 (ip), vehicle: Klucel (hydroxypropylcellulose) (HPC)
[7] = dose: 200.0 mg/kg/injection, schedule: Q01DX009 (ip), vehicle: saline with Tween-80
[8] = dose: 100.0 mg/kg/injection, schedule: Q01DX001 (ip), vehicle: saline
[9] = dose: 200.0 mg/kg/injection, schedule: Q01DX001 (ip), vehicle: saline
[10] = dose: 400.0 mg/kg/injection, schedule: Q01DX001 (ip), vehicle: saline

In the case of `O=C(O)CNCc1ccc(Cl)c(Cl)c1`, the T/C (dose: 75.0 mg/kg/injection, schedule: Q01DX009 (ip), vehicle: saline) is reported as 100 % of control, the T/C (dose: 100.0 mg/kg/injection, schedule: Q01DX009 (ip), vehicle: saline) is reported as 97 % of control and 120 % of control and the T/C (dose: 100.0 mg/kg/injection, schedule: Q04DX003 (ip), vehicle: saline) is reported as 96 % of control. The T/C (dose: 150.0 mg/kg/injection, schedule: Q01DX009 (ip), vehicle: saline) was 99 % of control, the T/C (dose: 200.0 mg/kg/injection, schedule: Q01DX009 (ip), vehicle: saline) was 111 % of control and the T/C (dose: 200.0 mg/kg/injection, schedule: Q04DX003 (ip), vehicle: saline) was 102 % of control. For the same compound, the T/C (dose: 400.0 mg/kg/injection, schedule: Q01DX009 (ip), vehicle: saline) was 95 % of control and the T/C (dose: 400.0 mg/kg/injection, schedule: Q04DX003 (ip), vehicle: saline) was 90 % of control.
In the case of `N#Cc1ccc(Nc2ccc(C#N)cc2)cc1`, the T/C (dose: 25.0 mg/kg/injection, schedule: Q01DX009 (ip), vehicle: saline with Tween-80) is reported as 105 % of control, the T/C [1] is reported as 94 % of control and the T/C [2] is reported as 94 % of control. The T/C [3] was 96 % of control, the T/C [4] was 96 % of control and the T/C [5] was 91 % of control.
`N/N=C\C(=N/N)C(O)C(O)C(O)C(O)CO` (stereo not drawn) was tested, and the T/C [3] was 86 % of control, the T/C [4] was 88 % of control and the T/C [5] was 93 % of control.
`CCCCCCCCCCCCCCCCCCSCCO` was tested, and the T/C [6] was 100 % of control and 90 % of control, the T/C (dose: 200.0 mg/kg/injection, schedule: Q04DX003 (ip), vehicle: Klucel (hydroxypropylcellulose) (HPC)) was 102 % of control and the T/C (dose: 400.0 mg/kg/injection, schedule: Q04DX003 (ip), vehicle: Klucel (hydroxypropylcellulose) (HPC)) was 92 % of control and 100 % of control.
In the case of `Nc1c2ccccc2cc2ccccc12`, the T/C [1] is reported as 91 % of control, the T/C [2] is reported as 97 % of control and the T/C [3] is reported as 96 % of control and 112 % of control. The T/C [7] was 110 % of control, the T/C [4] was 91 % of control and 97 % of control and the T/C [5] was 88 % of control.
`Cc1c(/C=N\Nc2ccccc2)[nH]c(=O)[nH]c1=O` was tested, and the T/C [8] was 92 % of control, the T/C [9] was 92 % of control and the T/C [10] was 86 % of control.
`CCOC(=O)CSCCC1CC(=O)N1` (stereo not drawn) was tested, and the T/C (dose: 100.0 mg/kg/injection, schedule: Q04DX003 (ip), vehicle: other) was 103 % of control, the T/C (dose: 200.0 mg/kg/injection, schedule: Q04DX003 (ip), vehicle: other) was 104 % of control and the T/C (dose: 400.0 mg/kg/injection, schedule: Q04DX003 (ip), vehicle: other) was 107 % of control.
In the case of `CC[Si](Cl)(CC)c1ccccc1`, the T/C [8] is reported as 93 % of control, the T/C (dose: 100.0 mg/kg/injection, schedule: Q01DX001 (sc), vehicle: olive oil, sesame oil, peanut oil) is reported as 107 % of control and the T/C [9] is reported as 90 % of control. For the same compound, the T/C (dose: 200.0 mg/kg/injection, schedule: Q01DX001 (sc), vehicle: olive oil, sesame oil, peanut oil) was 107 % of control, the T/C [10] was 195 % of control and the T/C (dose: 400.0 mg/kg/injection, schedule: Q01DX001 (sc), vehicle: olive oil, sesame oil, peanut oil) was 102 % of control.
In the case of `O=C(COc1ccc(Cl)cc1Cl)Oc1c(Cl)c(Cl)c(Cl)c(Cl)c1Cl`, the T/C [2] is reported as 88 % of control, the T/C [3] is reported as 91 % of control and the T/C [7] is reported as 88 % of control. The T/C [4] was 92 % of control, the T/C (dose: 400.0 mg/kg/injection, schedule: Q01DX009 (ip), vehicle: saline with Tween-80) was 92 % of control and the T/C [5] was 86 % of control.
In the case of `COc1cccc(N=Nc2ccc(N(C)C)cc2)c1`, the T/C [8] is reported as 95 % of control, the T/C [9] is reported as 95 % of control and the T/C [10] is reported as 103 % of control.
In the case of `Cc1ccc(C(=O)Nc2ccc(OCCCc3c(N)nc(N)nc3N)cc2)cc1S(=O)(=O)F`, the T/C (dose: 25.0 mg/kg/injection, schedule: Q04DX003 (ip), vehicle: Klucel (hydroxypropylcellulose) (HPC)) is reported as 103 % of control, the T/C (dose: 50.0 mg/kg/injection, schedule: Q04DX003 (ip), vehicle: Klucel (hydroxypropylcellulose) (HPC)) is reported as 97 % of control and the T/C [6] is reported as 103 % of control.
With `O=C1c2ccccc2C(=O)c2c(O)c([N+](=O)[O-])cc([N+](=O)[O-])c21` the T/C [8] was 98 % of control, the T/C [9] was 104 % of control and the T/C [10] was 100 % of control.

Source: PubChem BioAssay AID248 (DTP/NCI, 2004)
